Test results from patent US20240092761A1, “QUINAZOLINE COMPOUNDS AND METHODS OF USE” (IAMBIC THERAPEUTICS, INC., priority 2022, published 2024).

Legend:
CDK4/Cyclin D1 = CDK4/Cyclin D1 (Homo sapiens (Human), UniProt P11802); test: CDK4/Cyclin D1 CHEF Assay (AQT0258 peptide); format: biochemical; settings: 200 uM ATP, read-out: CDK4/ CyclinD1 AQT IC50
Summary of the method: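 CDK4/Cyclin D1 (2.5 nM) phosphorylating 10 uM Sox-labelled peptide AQT0258 with 200 uM ATP (Km 195.2 uM), 10 mM MgCl2, 2% DMSO, 54 mM HEPES pH 7.5. Enzyme and inhibitor pre-incubated 30 min, reaction 3 hrs at 22° C.; CHEF fluorescence (ex 360/em 485 nm), IC50 from fractional velocity, 4-parameter fit.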

OVCAR-3 cells = test: Cell Growth Inhibition, OVCAR-3 (CellTiterGlo, 6 days); format: cell-based; settings: Homo sapiens, 144 h; OVCAR-3, 6-day treatment, CellTiterGlo 2.0
Summary of the method: (§1)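 MCF-7 and OVCAR-3 cells (RPMI, 10% FBS) were seeded at 500 cells/well onto compound, typically 10–10,000 nM in half-log dilutions. Growth proceeded 6 days at 37 °C, then CellTiterGlo luminescence was read. % inhibition was taken versus control, and IC50 came from a four-parameter variable-slope fit.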

[1] = target: CDK2/Cyclin E1 full length (Homo sapiens (Human), UniProt P24941); test: CDK2/Cyclin E1 Full Length ADP-Glo Kinase Assay; format: biochemical; settings: 20 uM ATP, read-out: CDK2/ CyclinE1 IC50
Summary of the method: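 Full-length human CDK2/Cyclin E1 (0.328 nM) pre-incubated 30 min with inhibitor at RT, then reacted 90 min at RT with 20 uM ATP (Km 64.78 uM) and 0.75 uM substrate in pH 7.5 HEPES, 2% DMSO. ADP measured by ADP-Glo luminescence; IC50 from 4-parameter fit of fractional velocity.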

CDK6/Cyclin D3 = CDK6/Cyclin D3 (Homo sapiens (Human), UniProt Q00534); test: CDK6/Cyclin D3 ADP-Glo Kinase Assay; format: biochemical; settings: 100 uM ATP, read-out: CDK6/ CyclinD3 IC50
Chain of CDK6/Cyclin D3 (Q00534 whole entry): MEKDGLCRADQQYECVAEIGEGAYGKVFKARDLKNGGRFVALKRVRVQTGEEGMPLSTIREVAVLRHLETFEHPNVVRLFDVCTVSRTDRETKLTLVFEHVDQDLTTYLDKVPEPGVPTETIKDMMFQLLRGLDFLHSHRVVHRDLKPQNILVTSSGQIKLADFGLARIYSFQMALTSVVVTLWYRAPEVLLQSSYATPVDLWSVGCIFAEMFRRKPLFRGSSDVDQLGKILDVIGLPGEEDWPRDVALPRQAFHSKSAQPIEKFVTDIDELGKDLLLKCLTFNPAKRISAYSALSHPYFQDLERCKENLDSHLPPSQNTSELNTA
Chain of CDK6/Cyclin D3 (P30281 whole entry partner): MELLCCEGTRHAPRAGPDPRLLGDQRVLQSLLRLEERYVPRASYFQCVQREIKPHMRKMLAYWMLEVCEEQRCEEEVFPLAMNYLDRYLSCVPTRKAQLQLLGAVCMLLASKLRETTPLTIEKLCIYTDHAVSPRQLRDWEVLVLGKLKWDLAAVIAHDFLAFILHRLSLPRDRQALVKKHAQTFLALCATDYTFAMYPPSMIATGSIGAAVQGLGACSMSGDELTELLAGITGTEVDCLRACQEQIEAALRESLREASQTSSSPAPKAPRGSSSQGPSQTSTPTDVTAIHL
Summary of the method: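 Recombinant human CDK6/Cyclin D3 pre-incubated 30 min with inhibitor at room temperature, then reaction started with ATP/substrate and run 90 min at room temperature. ADP formed detected by ADP-Glo luminescence; IC50 from a 4-parameter fit of fractional velocity versus inhibitor concentration.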

MCF-7 cells = test: Cell Growth Inhibition, MCF-7 (CellTiterGlo, 6 days); format: cell-based; settings: Homo sapiens, MCF7, 144 h; MCF-7, 6-day treatment, CellTiterGlo 2.0
Summary of the method: as §1

CDK1/Cyclin B1 = CDK1/Cyclin B1 (Homo sapiens (Human), UniProt P06493); test: CDK1/Cyclin B1 ADP-Glo Kinase Assay; format: biochemical; settings: 80 uM ATP
Chain of CDK1/Cyclin B1 (P06493 whole entry): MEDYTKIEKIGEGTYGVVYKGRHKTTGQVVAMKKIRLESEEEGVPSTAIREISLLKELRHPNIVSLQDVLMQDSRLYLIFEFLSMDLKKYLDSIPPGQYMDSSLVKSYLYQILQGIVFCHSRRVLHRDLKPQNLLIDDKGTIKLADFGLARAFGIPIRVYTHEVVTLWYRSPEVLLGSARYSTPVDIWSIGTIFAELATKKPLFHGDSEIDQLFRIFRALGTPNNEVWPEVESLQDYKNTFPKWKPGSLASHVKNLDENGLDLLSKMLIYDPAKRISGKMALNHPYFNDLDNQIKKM
Chain of CDK1/Cyclin B1 (P14635 whole entry partner): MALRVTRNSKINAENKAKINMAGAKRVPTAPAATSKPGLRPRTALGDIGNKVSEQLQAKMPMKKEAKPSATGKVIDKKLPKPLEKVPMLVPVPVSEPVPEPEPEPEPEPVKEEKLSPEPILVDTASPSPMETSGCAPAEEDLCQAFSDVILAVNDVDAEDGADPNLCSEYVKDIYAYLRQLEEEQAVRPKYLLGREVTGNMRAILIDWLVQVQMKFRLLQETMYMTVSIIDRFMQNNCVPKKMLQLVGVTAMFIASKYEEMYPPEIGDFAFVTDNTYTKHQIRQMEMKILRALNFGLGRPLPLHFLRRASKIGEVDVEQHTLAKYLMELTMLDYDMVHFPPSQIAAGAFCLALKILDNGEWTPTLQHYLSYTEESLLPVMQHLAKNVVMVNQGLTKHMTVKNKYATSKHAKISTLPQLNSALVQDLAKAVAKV
Summary of the method: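 CDK1/cyclin B1 (4.917 nM) preincubated 30 min with inhibitor (2% DMSO), then 80 µM ATP (Km 78.6 µM) and 0.75 µM substrate added; 90 min, room temperature, pH 7.5. ADP measured by ADP-Glo luminescence; IC50 from 4-parameter fit.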

Chain of CDK4/Cyclin D1 (P11802 whole entry): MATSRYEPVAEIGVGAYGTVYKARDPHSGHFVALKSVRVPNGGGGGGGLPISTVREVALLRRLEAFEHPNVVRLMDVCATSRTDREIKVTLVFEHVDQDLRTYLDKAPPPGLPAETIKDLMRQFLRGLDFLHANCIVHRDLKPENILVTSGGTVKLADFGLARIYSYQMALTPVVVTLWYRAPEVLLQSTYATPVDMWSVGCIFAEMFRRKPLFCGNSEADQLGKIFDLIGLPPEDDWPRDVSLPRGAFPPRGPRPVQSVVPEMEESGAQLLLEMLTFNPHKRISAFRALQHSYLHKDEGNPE
Chain of CDK4/Cyclin D1 (P24385 whole entry partner): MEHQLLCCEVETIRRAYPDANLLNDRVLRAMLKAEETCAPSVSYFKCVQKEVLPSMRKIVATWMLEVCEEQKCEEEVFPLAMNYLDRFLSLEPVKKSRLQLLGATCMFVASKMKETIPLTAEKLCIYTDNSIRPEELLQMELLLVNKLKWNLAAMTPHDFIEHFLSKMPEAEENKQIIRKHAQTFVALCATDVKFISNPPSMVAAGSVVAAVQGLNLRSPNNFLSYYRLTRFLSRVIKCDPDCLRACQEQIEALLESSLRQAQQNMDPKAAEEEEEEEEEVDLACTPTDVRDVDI

SMILES	IC50 (CDK4/Cyclin D1) [nM]	IC50 (OVCAR-3 cells) [nM]	IC50 [1] [nM]	IC50 (CDK6/Cyclin D3) [nM]	IC50 (MCF-7 cells) [nM]	IC50 (CDK1/Cyclin B1) [nM]
O=S(=O)(C1CC1)N1CCC(Nc2ncc3cc(C(F)F)cc(N4CC5(CCCNC5)C4)c3n2)CC1 [Example 80, N-(1-(cyclopropylsulfonyl)piperidin-4-yl)-6-(difluoromethyl)-8-(2,6-diazaspiro[3.5]nonan-2-yl)quinazolin-2-amine]	< 200	200 to 500	< 200	< 200	200 to 500	< 200
CN1CC2(CCN(c3cc(C(F)F)cc4cnc(NC5CCN(S(=O)(=O)C6CC6)CC5)nc34)C2)C1 [Example 77, N-(1-(cyclopropylsulfonyl)piperidin-4-yl)-6-(difluoromethyl)-8-(2-methyl-2,6-diazaspiro[3.4]octan-6-yl)quinazolin-2-amine]	< 200	500 to 2000	< 200	< 200	200 to 500	< 200
O=S(=O)(C1CC1)N1CCC(Nc2ncc3cc(C(F)F)cc(C4CC5(C4)CN(CC(F)F)C5)c3n2)CC1 [Example 90, N-(1-(cyclopropylsulfonyl)piperidin-4-yl)-8-(2-(2,2-difluoroethyl)-2-azaspiro[3.3]heptan-6-yl)-6-(difluoromethyl)quinazolin-2-amine]	< 200	200 to 500	< 200	< 200	500 to 2000	< 200
Cn1ncc2cc(Nc3ncc4cc(C(F)F)cc(N5CC6(CCNC6)C5)c4n3)ccc21 [Example 75, 6-(difluoromethyl)-N-(1-methyl-1H-indazol-5-yl)-8-(2,6-diazaspiro[3.4]octan-2-yl)quinazolin-2-amine]	< 200	500 to 2000	< 200	< 200	500 to 2000	< 200
O=S(=O)(CC1CC1)N1CCC(Nc2ncc3cc(C(F)F)cc(N4CC5(CCNC5)C4)c3n2)CC1 [Example 85, N-(1-((cyclopropylmethyl)sulfonyl)piperidin-4-yl)-6-(difluoromethyl)-8-(2,6-diazaspiro[3.4]octan-2-yl)quinazolin-2-amine]	< 200	200 to 500	< 200	< 200	200 to 500	< 200
CS(=O)(=O)N1CCC(Nc2ncc3cc(C(F)(F)F)cc(N4CC5(CNCC5(F)F)C4)c3n2)CC1 [Example 116, 8-(8,8-difluoro-2,6-diazaspiro[3.4]octan-2-yl)-N-(1-(methylsulfonyl)piperidin-4-yl)-6-(trifluoromethyl)quinazolin-2-amine]	< 200	> 2000	< 200	< 200	500 to 2000	500 to 2000
O=S(=O)(CC1CCC1)N1CCC(Nc2ncc3cc(C(F)F)cc(N4CC5(CCNC5)C4)c3n2)CC1 [Example 86, N-(1-((cyclobutylmethyl)sulfonyl)piperidin-4-yl)-6-(difluoromethyl)-8-(2,6-diazaspiro[3.4]octan-2-yl)quinazolin-2-amine]	< 200	500 to 2000	< 200	< 200	500 to 2000	< 200
FC(F)c1cc(N2CC3(CCNC3)C2)c2nc(NC3CCN(c4ncc(C5CC5)cn4)CC3)ncc2c1 [Example 68, N-(1-(5-cyclopropylpyrimidin-2-yl)piperidin-4-yl)-6-(difluoromethyl)-8-(2,6-diazaspiro[3.4]octan-2-yl)quinazolin-2-amine]	< 200	500 to 2000	< 200	200 to 500	500 to 2000	< 200
CS(=O)(=O)N1CCC(Nc2ncc3cc(C(F)F)cc(N4CC5(C4)CN(C4CC4)C5)c3n2)CC1 [Example 69, 8-(6-cyclopropyl-2,6-diazaspiro[3.3]heptan-2-yl)-6-(difluoromethyl)-N-(1-(methylsulfonyl)piperidin-4-yl)quinazolin-2-amine]	< 200	500 to 2000	< 200	< 200	200 to 500	200 to 500

Further lines, results first:

IC50 (CDK4/Cyclin D1) [nM]	IC50 (OVCAR-3 cells) [nM]	IC50 [1] [nM]	IC50 (CDK6/Cyclin D3) [nM]	IC50 (MCF-7 cells) [nM]	IC50 (CDK1/Cyclin B1) [nM]	SMILES
< 200	200 to 500	< 200	< 200	200 to 500	< 200	CS(=O)(=O)N1CCC(Nc2ncc3cc(C(F)F)cc(C4CC5(CCNC5)C4)c3n2)CC1 (stereo not drawn) [Example 70, 6-(difluoromethyl)-N-(1-(methylsulfonyl)piperidin-4-yl)-8-(6-azaspiro[3.4]octan-2-yl)quinazolin-2-amine]
< 200	200 to 500	< 200	< 200	200 to 500	< 200	CS(=O)(=O)N1CCC(Nc2ncc3cc(C(F)F)cc(C4CC5(CCN(C6COC6)C5)C4)c3n2)CC1 (stereo not drawn) [Example 102, 6-(difluoromethyl)-N-(1-(methylsulfonyl)piperidin-4-yl)-8-(6-(oxetan-3-yl)-6-azaspiro[3.4]octan-2-yl)quinazolin-2-amine]
< 200	200 to 500	< 200	< 200	500 to 2000	< 200	CS(=O)(=O)N1CCC(Nc2ncc3cccc(C4CC5(CCNC5)C4)c3n2)CC1 (stereo not drawn) [Example 99, N-(1-(methylsulfonyl)piperidin-4-yl)-8-(6-azaspiro[3.4]octan-2-yl)quinazolin-2-amine]
< 200	500 to 2000	< 200	< 200	> 2000	200 to 500	CS(=O)(=O)N1CCC(Nc2ncc3cccc(C4CC(CO)(C(F)F)C4)c3n2)CC1 (stereo not drawn) [Example 121, (1-(difluoromethyl)-3-(2-((1-methanesulfonylpiperidin-4-yl)amino)quinazolin-8-yl)cyclobutyl]methanol]
< 200	200 to 500	< 200	< 200	200 to 500	< 200	CS(=O)(=O)N1CCC(Nc2ncc3cc(C(F)F)cc(C4CC(O)(C(F)F)C4)c3n2)CC1 (stereo not drawn) [Example 113, 1-(difluoromethyl)-3-(6-(difluoromethyl)-2-((1-(methylsulfonyl)piperidin-4-yl)amino)quinazolin-8-yl)cyclobutan-1-ol]
< 200	< 200	< 200	< 200	200 to 500	< 200	O=S(=O)(N1CCC(Nc2ncc3cc(C(F)F)cc(C4CC5(CCNC5)C4)c3n2)CC1)C1(C(F)F)CC1 (stereo not drawn) [Example 91, 6-(difluoromethyl)-N-(1-((1-(difluoromethyl)cyclopropyl)sulfonyl)piperidin-4-yl)-8-(6-azaspiro[3.4]octan-2-yl)quinazolin-2-amine]
< 200	500 to 2000	< 200	< 200	500 to 2000	< 200	CC1(CCS(=O)(=O)N2CCC(Nc3ncc4cc(C(F)F)cc(N5CC6(CCNC6)C5)c4n3)CC2)CC1 [Example 96, 6-(difluoromethyl)-N-(1-((2-(1-methylcyclopropyl)ethyl)sulfonyl)piperidin-4-yl)-8-(2,6-diazaspiro[3.4]octan-2-yl)quinazolin-2-amine]
< 200	200 to 500	< 200	< 200	500 to 2000	< 200	CS(=O)(=O)N1CCC(Nc2ncc3cccc(C4CC(O)(C(F)F)C4)c3n2)CC1 (stereo not drawn) [Example 120, 1-(difluoromethyl)-3-(2-((1-(methylsulfonyl)piperidin-4-yl)amino)quinazolin-8-yl)cyclobutan-1-ol]
< 200	200 to 500	< 200	< 200	500 to 2000	< 200	CC1(S(=O)(=O)N2CCC(Nc3ncc4cc(C(F)F)cc(N5CC6(CCNC6)C5)c4n3)CC2)CC1 [Example 87, 6-(difluoromethyl)-N-(1-((1-methylcyclopropyl)sulfonyl)piperidin-4-yl)-8-(2,6-diazaspiro[3.4]octan-2-yl)quinazolin-2-amine]
< 200	< 200	< 200	< 200	200 to 500	< 200	CS(=O)(=O)N1CCC(Nc2ncc3cc(C(F)F)cc(C4CC5(C4)CN(CC(F)(F)CO)C5)c3n2)CC1 [Example 112, 3-(6-(6-(difluoromethyl)-2-((1-(methylsulfonyl)piperidin-4-yl)amino)quinazolin-8-yl)-2-azaspiro[3.3]heptan-2-yl)-2,2-difluoropropan-1-ol]
